Data reported in US20150094283A1, “COMBINATION” (GlaxoSmithKline LLC, priority 2010, published 2015).

Tested on: SKOV3 tumor xenografts (human ovarian carcinoma)
Assay: Growth of SKOV3 tumor xenografts in SCID mice (tumor growth inhibition)
Type: in vivo
Details: PO, compared to vehicle treated mice
Experimental: Female SCID mice were implanted subcutaneously with 5×10^6 SKOV3 cells (human ovarian carcinoma). When the tumor volume reached 300-400 mm^3, mice were block randomized to different treatment groups (n=8 mice/group). Mice received the AKT inhibitor, Compound C as the free base, at 10 or 30 mg/kg, once daily (SID) for 21 days in 20% PEG-400, 1% DMSO in water. The VEGFR inhibitor, Compound A as the monohydrochloride salt, was administered at 100 mg/kg, twice/day (BID) for 21 days either alone or in combination with the AKT inhibitor. Mice were weighed and tumors measured by calipers twice weekly. Tumor volumes were calculated using the formula: tumor volume=(Length×Width^2)/2. The percentage of tumor growth inhibition was calculated on each day of tumor measurement using the formula: 100×[1−(average growth of the compound-treated tumors/average growth of vehicle-treated control tumors)]. Data is plotted as mean±sem for tumor volume for each group.

Row | Structure (SMILES) | Tumor Growth Inhibition (Compound A (monohydrochloride salt) 100 mg/kg, BID x21 d, 100 mg/kg) [%] | Tumor Growth Inhibition (Compound C (free base) 10 mg/kg, SID x21 d, 10 mg/kg) [%] | Tumor Growth Inhibition (Compound C (free base) 30 mg/kg, SID x21 d, 30 mg/kg) [%]
1 | Cc1ccc(Nc2nccc(N(C)c3ccc4c(C)n(C)nc4c3)n2)cc1S(N)(=O)=O [Compound A, 5-[[4-[(2,3-dimethyl-2H-indazol-6-yl)methylamino]-2-pyrimidinyl]amino]-2-methylbenzenesulfonamide, reference compound] | 47 |  | 
2 | Cn1ncc(Cl)c1-c1cc(C(=O)N[C@H](CN)Cc2ccc(F)c(F)c2)oc1Cl [Compound C, N-{(1S)-2-amino-1-[(3,4-difluorophenyl)methyl]ethyl}-5-chloro-4-(4-chloro-1-methyl-1H-pyrazol-5-yl)-2-furancarboxamide] |  | 86 | 67
